Some targets named below: Motilin receptor (Homo sapiens, UniProt O43193); Adenosine receptor A2a (Homo sapiens, UniProt P29274); Vasopressin V1a receptor (Homo sapiens, UniProt P37288); Vasopressin V2 receptor (Homo sapiens, UniProt P30518).
Another test addresses T1, Glucocorticoid receptor (Homo sapiens, UniProt P04150).
T1 sequence (P04150 whole entry): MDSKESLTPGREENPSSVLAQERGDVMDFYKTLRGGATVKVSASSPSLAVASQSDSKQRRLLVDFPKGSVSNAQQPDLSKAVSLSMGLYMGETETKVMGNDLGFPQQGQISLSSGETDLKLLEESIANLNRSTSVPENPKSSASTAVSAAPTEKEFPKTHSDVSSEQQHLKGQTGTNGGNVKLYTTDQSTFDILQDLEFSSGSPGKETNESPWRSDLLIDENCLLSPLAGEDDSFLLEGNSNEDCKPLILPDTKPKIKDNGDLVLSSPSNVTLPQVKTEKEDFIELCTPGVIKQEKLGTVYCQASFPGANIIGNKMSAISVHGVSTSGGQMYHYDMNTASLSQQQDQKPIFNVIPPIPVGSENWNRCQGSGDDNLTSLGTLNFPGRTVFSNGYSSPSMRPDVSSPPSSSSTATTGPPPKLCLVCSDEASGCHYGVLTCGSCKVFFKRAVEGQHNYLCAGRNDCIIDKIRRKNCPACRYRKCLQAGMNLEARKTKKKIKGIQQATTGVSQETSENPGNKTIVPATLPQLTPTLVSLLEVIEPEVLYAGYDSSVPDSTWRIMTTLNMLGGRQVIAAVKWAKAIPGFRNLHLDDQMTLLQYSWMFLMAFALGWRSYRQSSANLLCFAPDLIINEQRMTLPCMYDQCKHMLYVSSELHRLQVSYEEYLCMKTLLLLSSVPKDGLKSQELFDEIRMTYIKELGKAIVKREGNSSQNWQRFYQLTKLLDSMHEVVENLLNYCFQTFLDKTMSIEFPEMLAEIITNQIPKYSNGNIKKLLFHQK

The target of test [1] is T2, Neuropeptide Y receptor type 1 (Homo sapiens, UniProt P25929).
T2 sequence (P25929 whole entry): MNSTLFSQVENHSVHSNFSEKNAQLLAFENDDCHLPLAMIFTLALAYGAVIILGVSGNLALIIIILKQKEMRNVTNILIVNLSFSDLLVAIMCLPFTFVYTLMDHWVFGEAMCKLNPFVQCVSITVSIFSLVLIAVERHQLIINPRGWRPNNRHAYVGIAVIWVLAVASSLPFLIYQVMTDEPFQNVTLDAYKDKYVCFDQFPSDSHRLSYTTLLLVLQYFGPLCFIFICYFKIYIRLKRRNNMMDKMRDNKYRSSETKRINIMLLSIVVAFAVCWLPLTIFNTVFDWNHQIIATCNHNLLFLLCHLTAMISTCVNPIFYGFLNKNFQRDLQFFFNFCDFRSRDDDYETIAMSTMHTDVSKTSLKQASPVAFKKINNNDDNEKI

Test [2] addresses T3, Gastrin/cholecystokinin type B receptor (Homo sapiens, UniProt P32239).
T3 sequence (P32239 whole entry): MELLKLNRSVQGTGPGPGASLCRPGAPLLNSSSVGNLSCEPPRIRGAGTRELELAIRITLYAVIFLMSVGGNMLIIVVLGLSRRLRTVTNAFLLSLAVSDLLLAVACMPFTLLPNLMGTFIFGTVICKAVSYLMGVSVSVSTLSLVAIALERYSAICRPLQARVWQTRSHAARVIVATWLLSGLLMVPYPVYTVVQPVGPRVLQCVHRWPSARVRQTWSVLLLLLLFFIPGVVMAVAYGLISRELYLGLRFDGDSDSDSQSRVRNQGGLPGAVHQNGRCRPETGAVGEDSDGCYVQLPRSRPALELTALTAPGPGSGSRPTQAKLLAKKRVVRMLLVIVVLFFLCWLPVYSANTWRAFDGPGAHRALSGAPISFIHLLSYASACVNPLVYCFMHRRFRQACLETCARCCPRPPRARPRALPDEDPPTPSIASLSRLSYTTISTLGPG

In test [3] the target is Glutamate receptor ionotropic, NMDA 1 (Rattus norvegicus, UniProt P35439).
Another test concerns the target T4, Progesterone receptor (Homo sapiens, UniProt P06401).
T4 sequence (P06401 whole entry): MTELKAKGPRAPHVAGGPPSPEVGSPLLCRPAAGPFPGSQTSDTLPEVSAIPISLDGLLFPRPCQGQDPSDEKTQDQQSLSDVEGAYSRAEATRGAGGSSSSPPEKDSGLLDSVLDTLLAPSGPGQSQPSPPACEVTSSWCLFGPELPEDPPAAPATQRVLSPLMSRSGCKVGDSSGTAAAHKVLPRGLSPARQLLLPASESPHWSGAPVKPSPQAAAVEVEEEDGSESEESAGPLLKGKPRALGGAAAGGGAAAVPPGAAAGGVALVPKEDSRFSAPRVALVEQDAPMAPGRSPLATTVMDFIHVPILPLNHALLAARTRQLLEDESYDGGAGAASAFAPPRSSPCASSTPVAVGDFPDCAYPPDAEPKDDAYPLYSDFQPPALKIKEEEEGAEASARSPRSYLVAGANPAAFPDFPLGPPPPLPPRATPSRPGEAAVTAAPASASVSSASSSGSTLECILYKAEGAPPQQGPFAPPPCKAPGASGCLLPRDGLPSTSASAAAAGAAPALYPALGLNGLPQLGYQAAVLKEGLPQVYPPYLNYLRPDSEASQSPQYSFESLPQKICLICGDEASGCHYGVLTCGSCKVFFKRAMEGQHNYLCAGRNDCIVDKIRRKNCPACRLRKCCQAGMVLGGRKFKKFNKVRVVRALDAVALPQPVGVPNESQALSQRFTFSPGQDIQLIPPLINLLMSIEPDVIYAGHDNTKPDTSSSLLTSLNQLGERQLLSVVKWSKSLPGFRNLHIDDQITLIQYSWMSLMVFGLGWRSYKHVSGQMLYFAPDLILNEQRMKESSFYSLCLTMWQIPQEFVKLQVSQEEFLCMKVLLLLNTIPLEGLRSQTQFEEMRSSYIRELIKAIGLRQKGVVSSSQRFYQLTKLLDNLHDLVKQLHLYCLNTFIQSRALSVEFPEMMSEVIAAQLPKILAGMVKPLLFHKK
In kind it is functional.

Where a SMILES comes first, the peptide text is derived from it. [ ]: non-standard residue; d: D form. pGlu = O=C1CC[C@@H](C(=O)O)N1; Thz = O=C(O)[C@@H]1CSCN1
Further: assay procedure not described here.

Chain of Vasopressin V2 receptor (P30518 whole entry): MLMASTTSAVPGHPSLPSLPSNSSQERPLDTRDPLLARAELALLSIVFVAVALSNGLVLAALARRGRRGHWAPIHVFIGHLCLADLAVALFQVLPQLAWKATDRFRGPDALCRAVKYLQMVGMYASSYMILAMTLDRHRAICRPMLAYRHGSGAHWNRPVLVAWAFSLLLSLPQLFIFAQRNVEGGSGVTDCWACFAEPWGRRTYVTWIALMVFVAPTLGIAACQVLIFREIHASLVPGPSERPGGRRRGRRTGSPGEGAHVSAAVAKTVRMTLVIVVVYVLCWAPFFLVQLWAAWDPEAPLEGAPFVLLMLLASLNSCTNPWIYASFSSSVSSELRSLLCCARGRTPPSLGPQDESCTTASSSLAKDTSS
Chain of Vasopressin V1a receptor (P37288 whole entry): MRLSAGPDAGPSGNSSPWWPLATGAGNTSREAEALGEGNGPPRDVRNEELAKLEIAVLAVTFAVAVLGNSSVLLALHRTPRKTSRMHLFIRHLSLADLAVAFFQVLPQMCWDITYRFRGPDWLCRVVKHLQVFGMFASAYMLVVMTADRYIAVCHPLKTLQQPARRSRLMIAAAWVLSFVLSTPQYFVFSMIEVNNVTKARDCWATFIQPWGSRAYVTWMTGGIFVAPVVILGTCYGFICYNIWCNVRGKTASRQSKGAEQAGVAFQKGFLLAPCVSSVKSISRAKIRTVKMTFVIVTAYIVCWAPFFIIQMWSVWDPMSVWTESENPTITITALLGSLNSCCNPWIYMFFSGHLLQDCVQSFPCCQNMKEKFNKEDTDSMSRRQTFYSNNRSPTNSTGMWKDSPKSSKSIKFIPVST
Chain of Motilin receptor (O43193 whole entry): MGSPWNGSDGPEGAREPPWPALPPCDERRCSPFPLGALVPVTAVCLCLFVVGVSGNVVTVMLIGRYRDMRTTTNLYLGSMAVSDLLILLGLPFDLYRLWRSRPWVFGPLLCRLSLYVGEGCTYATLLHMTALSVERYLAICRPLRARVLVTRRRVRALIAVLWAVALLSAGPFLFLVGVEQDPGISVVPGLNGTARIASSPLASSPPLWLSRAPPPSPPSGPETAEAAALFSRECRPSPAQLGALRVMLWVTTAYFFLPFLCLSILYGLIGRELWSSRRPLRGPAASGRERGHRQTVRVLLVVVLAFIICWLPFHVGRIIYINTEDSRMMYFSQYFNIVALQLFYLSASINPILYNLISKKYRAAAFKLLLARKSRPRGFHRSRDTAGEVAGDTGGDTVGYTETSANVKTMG
Chain of Adenosine receptor A2a (P29274 whole entry): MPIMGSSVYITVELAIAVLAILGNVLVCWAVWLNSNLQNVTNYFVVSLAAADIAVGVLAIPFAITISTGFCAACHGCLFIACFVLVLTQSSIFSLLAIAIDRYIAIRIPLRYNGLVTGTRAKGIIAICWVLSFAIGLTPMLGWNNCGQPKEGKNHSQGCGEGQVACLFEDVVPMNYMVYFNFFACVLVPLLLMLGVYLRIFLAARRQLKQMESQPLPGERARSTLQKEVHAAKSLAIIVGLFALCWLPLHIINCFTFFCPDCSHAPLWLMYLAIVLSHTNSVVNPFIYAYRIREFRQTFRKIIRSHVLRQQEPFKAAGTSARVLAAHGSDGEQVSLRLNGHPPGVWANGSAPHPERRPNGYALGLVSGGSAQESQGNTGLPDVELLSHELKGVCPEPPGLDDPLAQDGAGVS

On to `CN1CCN=C(c2ccccc2)c2cc(Cl)ccc21` [MEDAZEPAM], for which the AC50 (at Glucocorticoid receptor; at Motilin receptor; in test [1]; in [2]; in test [3]; on Progesterone receptor) was greater than 30 µM each time. Moreover, the AC50 on Adenosine receptor A2a, at Vasopressin V1a receptor and at Vasopressin V2 receptor was greater than 30 µM in each case.
As for `CCN1CCCC1CNC(=O)c1cc(S(=O)(=O)CC)ccc1OC` (stereo unspecified) [SULTOPRIDE], the AC50 (on Glucocorticoid receptor; at Motilin receptor; in test [1]; in test [2]; in [3]; on Progesterone receptor) was greater than 30 µM each time. The half-maximal activity concentration (AC50) at Adenosine receptor A2a, on Vasopressin V1a receptor and at Vasopressin V2 receptor was greater than 30 µM throughout.
Turning to `COc1ccc(CN2CCN(C(c3ccc(F)cc3)c3ccc(F)cc3)CC2)c(OC)c1OC` [LOMERIZINE], the AC50 (at Glucocorticoid receptor; at Motilin receptor; in test [1]; in [2]; in test [3]; on Progesterone receptor) was greater than 30 µM in each case. Besides, the AC50 at Adenosine receptor A2a, at Vasopressin V1a receptor and at Vasopressin V2 receptor was greater than 30 µM in each case.
For the compound `O=C1CC[C@@H](C(=O)N2CSC[C@H]2C(=O)O)N1` [PIDOTIMOD] ([pGlu]-[Thz]-OH), the AC50 (on Glucocorticoid receptor; at Motilin receptor; in test [1]; in test [2]; in [3]; on Progesterone receptor) was greater than 30 µM each time. Besides, the AC50 on Adenosine receptor A2a, at Vasopressin V1a receptor and on Vasopressin V2 receptor was greater than 30 µM in each case.
For the compound `OC[C@H]1O[C@@H](Oc2cc(O)cc(/C=C/c3ccc(O)cc3)c2)[C@H](O)[C@@H](O)[C@@H]1O` [PICEID], the AC50 (on Glucocorticoid receptor; at Motilin receptor; in test [1]; in test [2]; in test [3]; at Progesterone receptor) was greater than 30 µM in each case. For the same compound, the concentration at half-maximal activity (AC50) at Adenosine receptor A2a, on Vasopressin V1a receptor and at Vasopressin V2 receptor was greater than 30 µM throughout.
As for `O=C(CCCN1CCC(O)(c2ccc(Br)cc2)CC1)c1ccc(F)cc1` [BROMPERIDOL], the AC50 (at Glucocorticoid receptor; on Motilin receptor; in [1]; in test [2]; in test [3]; at Progesterone receptor) was greater than 30 µM each time. Also, the concentration at half-maximal activity (AC50) at Adenosine receptor A2a, at Vasopressin V1a receptor and on Vasopressin V2 receptor was greater than 30 µM throughout.
For `COc1cc2[nH]c(C)c(CCN3CCN(c4ccccc4)CC3)c2cc1OC` [OXYPERTINE], the half-maximal activity concentration (AC50) (at Glucocorticoid receptor; on Motilin receptor; in test [1]; in [2]; in test [3]; on Progesterone receptor) was greater than 30 µM each time. Also, the AC50 on Adenosine receptor A2a, at Vasopressin V1a receptor and on Vasopressin V2 receptor was greater than 30 µM throughout.
As for `C=CC[N+]1([C@H]2C[C@H]3[C@@H]4CC[C@H]5C[C@H](O)[C@@H](N6CCOCC6)C[C@]5(C)[C@H]4CC[C@]3(C)[C@H]2OC(C)=O)CCCC1` [ROCURONIUM], the AC50 (at Glucocorticoid receptor; on Motilin receptor; in test [1]; in test [2]; in [3]; at Progesterone receptor) was greater than 30 µM throughout. For the same compound, the AC50 at Adenosine receptor A2a, on Vasopressin V1a receptor and at Vasopressin V2 receptor was greater than 30 µM each time.
With `Clc1ccc(CCC(Cn2ccnc2)Sc2c(Cl)cccc2Cl)cc1` (stereo unspecified) [BUTOCONAZOLE], the AC50 is 18 µM on Glucocorticoid receptor; greater than 30 µM on Motilin receptor; greater than 30 µM in test [1]; greater than 30 µM in test [2]; greater than 30 µM in test [3]; greater than 30 µM on Progesterone receptor. Moreover, the AC50 on Adenosine receptor A2a, on Vasopressin V1a receptor and on Vasopressin V2 receptor was greater than 30 µM each time.

In general, AC50 refers to the concentration at which the activity in the assay is half-maximal. Lower therefore signals greater potency.

For the origin of these results see ChEMBL document CHEMBL5291721, “A preclinical secondary pharmacology resource illuminates target-adverse drug reaction associations of marketed drugs” (Nat Commun, 2023).
